# Laboratory results reported in patent US20230127839A1, “COMPOUNDS AND COMPOSITIONS FOR TREATING CONDITIONS ASSOCIATED WITH STING ACTIVITY” (IFM Due, Inc., priority 2019, published 2023).
# Target: T1, hSTING (Homo sapiens, UniProt Q86WV6, G230A/H232R/R293Q/R71H)
# T1 construct: host or cells: THP1-Dual KO-IFNAR2 cells
# Test: STING reporter assay (luciferase) in THP1-Dual KO-IFNAR2 cells stimulated with 2'3'cGAMP
# Assay type: cell-based
# Settings: 2'3'cGAMP 15 μM, 24 h, luciferase reporter activity
# Protocol: STING pathway activation by the compounds described herein is measured using THP1-Dual™ cells (KO-IFNAR2).
# THP1-Dual™ KO-IFNAR2 Cells (obtained from invivogen) are maintained in RPMI, 10% FCS, 5 ml P/S, 2 mM L-glut, 10 mM Hepes, and 1 mM sodium pyruvate.
# Compounds are spotted in empty 384 well tissue culture plates (Greiner 781182) by Echo for a final concentration of 0.0017-100 μM. Cells are plated into the TC plates at 40 μL per well, 2×10E6 cells/mL. For activation with STING ligand, 2′3′cGAMP (MW 718.38, obtained from Invivogen), is prepared in Optimem media.
# The following solutions are prepared for each 1×384 plate: • Solution A: 2 mL Optimem with one of the following stimuli: • 60 uL of 10 mM 2′3′cGAMP->150 μM stock • Solution B: 2 mL Optimem with 60 μL Lipofectamine 2000->Incubate 5 min at RT
# 2 mL of solution A and 2 ml Solution B is mixed and incubated for 20 min at room temperature (RT). 20 uL of transfection solution (A+B) is added on top of the plated cells, with a final 2′3′cGAMP concentration of 15 μM. The plates are then centrifuged immediately at 340 g for 1 minute, after which they are incubated at 37° C., 5% CO2, >98% humidity for 24 h. Luciferase reporter activity is then measured. EC50 values are calculated by using standard methods known in the art.
# Luciferase reporter assay: 10 μL of supernatant from the assay is transferred to white 384-plate with flat bottom and squared wells. One pouch of QUANTI-Luc™ Plus us dissolved in 25 mL of water. 100 μL of QLC Stabilizer per 25 mL of QUANTI-Luc™ Plus solution is added. 50 μL of QUANTI-Luc™ Plus/QLC solution per well is then added. Luminescence is measured on a Platereader (e.g., Spectramax I3X (Molecular Devices GF3637001)).
# Luciferase reporter activity is then measured. EC50 values are calculated by using standard methods known in the art.
# T1 sequence (Q86WV6 whole entry R71H/G230A/H232R/R293Q): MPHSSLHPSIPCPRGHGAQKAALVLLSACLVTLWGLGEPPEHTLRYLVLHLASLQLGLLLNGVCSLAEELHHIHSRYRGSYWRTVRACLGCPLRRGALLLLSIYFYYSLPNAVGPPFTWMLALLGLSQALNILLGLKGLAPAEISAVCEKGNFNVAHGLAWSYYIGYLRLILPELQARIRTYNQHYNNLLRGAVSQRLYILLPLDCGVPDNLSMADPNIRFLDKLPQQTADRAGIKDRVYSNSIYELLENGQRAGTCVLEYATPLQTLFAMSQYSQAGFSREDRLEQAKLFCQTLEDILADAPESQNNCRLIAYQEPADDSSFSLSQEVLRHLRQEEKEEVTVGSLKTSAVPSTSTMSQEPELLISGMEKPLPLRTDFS
row,Structure (SMILES),EC50
1,"COc1cc(NC(=O)Nc2c[nH]c3cc(F)c(F)cc23)cnc1N1CC(F)(F)C1 [Compound 168, 1-(5,6-difluoro-1H-indol-3-yl)-3-(6-(3,3-difluoroazetidin-1-yl)-5-methoxypyridin-3-yl)urea]",200 to 1000 nM
2,"O=C(Nc1cnc(N2CCC(F)(F)CC2)c(Cl)c1)Nc1c[nH]c2ccc(Br)cc12 [Compound 208, 1-(5-bromo-1H-indol-3-yl)-3-(5-chloro-6-(4,4-difluoropiperidin-1-yl)pyridin-3-yl)urea]",1000 to 5000 nM
3,"Cc1cc(NC(=O)Nc2c[nH]c3ccccc23)cnc1N1CCC(F)(F)CC1 [Compound 201, 1-(6-(4,4-difluoropiperidin-1-yl)-5-methylpyridin-3-yl)-3-(1H-indol-3-yl)urea]",200 to 1000 nM
4,"O=C(Nc1ccnc(C2CCC(F)(F)CC2)c1)Nc1c[nH]c2ccc(Cl)cc12 [Compound 255, 1-(5-chloro-1H-indol-3-yl)-3-(2-(4,4-difluorocyclohexyl)pyridin-4-yl)urea]",200 to 1000 nM
5,"O=C(Nc1ccnc(C2CCC(F)(F)CC2)c1)Nc1c[nH]c2cc(F)c(F)cc12 [Compound 220, 1-(5,6-difluoro-1H-indol-3-yl)-3-(2-(4,4-difluorocyclohexyl)pyridin-4-yl)urea]",200 to 1000 nM
6,"O=C(Nc1cnn(C2CC(F)(F)C2)c1)Nc1c[nH]c2cc(F)c(F)cc12 [Compound 216, 1-(5,6-difluoro-1H-indol-3-yl)-3-(1-(3,3-difluorocyclobutyl)-1H-pyrazol-4-yl)urea]",1000 to 5000 nM
7,"COCCO[C@@H]1CCN(c2ncc(NC(=O)Nc3c[nH]c4cc(F)c(F)cc34)cc2Cl)C1 [Compound 185, (R)-1-(5-chloro-6-(3-(2-methoxyethoxy)pyrrolidin-1-yl)pyridin-3-yl)-3-(5,6-difluoro-1H-indol-3-yl)urea]",200 to 1000 nM
8,"Cc1cc(NC(=O)Nc2c[nH]c3cc(F)c(F)cc23)cnc1N1CC(F)(F)C1 [Compound 162, 1-(5,6-difluoro-1H-indol-3-yl)-3-(6-(3,3-difluoroazetidin-1-yl)-5-methylpyridin-3-yl)urea]",200 to 1000 nM
9,"C#CCC1CCN(c2ccc(NC(=O)Nc3c[nH]c4ccccc34)cn2)CC1 [Compound 172, 1-(1H-indol-3-yl)-3-(6-(4-(prop-2-yn-1-yl)piperidin-1-yl)pyridin-3-yl)urea]",200 to 1000 nM
10,"Cc1nc(NC(=O)Nc2c[nH]c3cc(F)c(F)cc23)cnc1N1CCC(F)(F)CC1 [Compound 175, 1-(5,6-difluoro-1H-indol-3-yl)-3-(5-(4,4-difluoropiperidin-1-yl)-6-methylpyrazin-2-yl)urea]",200 to 1000 nM
11,"O=C(Nc1ccc(C2CC(F)(F)C2)c(F)c1)Nc1c[nH]c2ccccc12 [Compound 282, 1-(4-(3,3-difluorocyclobutyl)-3-fluorophenyl)-3-(1H-indol-3-yl)urea]",200 to 1000 nM
12,"O=C(Nc1cnn(CC2CCC2)c1)Nc1c[nH]c2ccc(Cl)cc12 [Compound 235, 1-(5-chloro-1H-indol-3-yl)-3-(1-(cyclobutylmethyl)-1H-pyrazol-4-yl)urea]",200 to 1000 nM
13,"O=C(Nc1cnc(N2CC3(CN(CC(F)(F)F)C3)C2)c(Cl)c1)Nc1c[nH]c2ccccc12 [Compound 250, 1-(5-chloro-6-(6-(2,2,2-trifluoroethyl)-2,6-diazaspiro[3.3]heptan-2-yl)pyridin-3-yl)-3-(1H-indol-3-yl)urea]",200 to 1000 nM
14,"C[C@@H]1CN(c2ncc(NC(=O)Nc3c[nH]c4ccc(Cl)cc34)cc2Cl)CCN1C(=O)OC(C)(C)C [Compound 284, tert-butyl(R)-4-(3-chloro-5-(3-(5-chloro-1H-indol-3-yl)ureido)pyridin-2-yl)-2-methylpiperazine-1-carboxylate]",40 to 200 nM
15,"O=C(Nc1ccc(N2CCC(F)(F)CC2)nc1)Nc1c[nH]c2cc(Cl)c(Cl)cc12 [Compound 128, 1-(5,6-dichloro-1H-indol-3-yl)-3-(6-(4,4-difluoropiperidin-1-yl)pyridin-3-yl)urea]",1000 to 5000 nM
16,"C[C@H]1CN(c2ncc(NC(=O)Nc3c[nH]c4ccc(Cl)cc34)cc2Cl)C[C@H](C)O1 [Compound 286, 1-(5-chloro-1H-indol-3-yl)-3-(5-chloro-6-((2S,6S)-2,6-dimethylmorpholino)pyridin-3-yl)urea]",40 to 200 nM
17,"O=C(Nc1cnn(C2CCC(F)(F)CC2)c1)Nc1c[nH]c2ccc(Cl)cc12 [Compound 209, 1-(5-chloro-1H-indol-3-yl)-3-(1-(4,4-difluorocyclohexyl)-1H-pyrazol-4-yl)urea]",200 to 1000 nM
18,"C[C@H]1CN(c2ncc(NC(=O)Nc3c[nH]c4cc(F)c(F)cc34)cc2Cl)CCO1 [Compound 188, (S)-1-(5-chloro-6-(2-methylmorpholino)pyridin-3-yl)-3-(5,6-difluoro-1H-indol-3-yl)urea]",200 to 1000 nM
19,"Cc1cc(NC(=O)Nc2c[nH]c3cc(F)c(F)cc23)cnc1N1CC2(CC(O)C2)C1 [Compound 161, 1-(5,6-difluoro-1H-indol-3-yl)-3-(6-(6-hydroxy-2-azaspiro[3.3]heptan-2-yl)-5-methylpyridin-3-yl)urea]",5000 to 100000 nM
20,"O=C(Nc1cnc(N2CCC3(CC2)CC3)c(Cl)c1)Nc1c[nH]c2cc(F)c(F)cc12 [Compound 241, 1-(5-chloro-6-(6-azaspiro[2.5]octan-6-yl)pyridin-3-yl)-3-(5,6-difluoro-1H-indol-3-yl)urea]",40 to 200 nM
21,"O=C(Nc1cnc(N2CC3(C2)CC(F)(F)C3)c(F)c1)Nc1c[nH]c2ccc(Cl)cc12 [Compound 137, 1-(5-chloro-1H-indol-3-yl)-3-(6-(6,6-difluoro-2-azaspiro[3.3]heptan-2-yl)-5-fluoropyridin-3-yl)urea]",40 to 200 nM
22,"O=C(Nc1ccc(C2CC(F)(F)C2)c(Cl)c1)Nc1c[nH]c2cc(F)c(F)cc12 [Compound 225, 1-(3-chloro-4-(3,3-difluorocyclobutyl)phenyl)-3-(5,6-difluoro-1H-indol-3-yl)urea]",200 to 1000 nM

# The remaining lines, values ahead:
row,EC50,Structure (SMILES)
1,40 to 200 nM,"O=C(Nc1cnc(N2CC3CCC(C2)O3)c(Cl)c1)Nc1c[nH]c2ccc(Cl)cc12 [Compound 285, 1-(6-(8-oxa-3-azabicyclo[3.2.1]octan-3-yl)-5-chloropyridin-3-yl)-3-(5-chloro-1H-indol-3-yl)urea]"
2,40 to 200 nM,"CSc1ccc2[nH]cc(NC(=O)Nc3cnc(N4CCC(F)(F)CC4)c(Cl)c3)c2c1 [Compound 183, 1-(5-chloro-6-(4,4-difluoropiperidin-1-yl)pyridin-3-yl)-3-(5-(methylthio)-1H-indol-3-yl)urea]"
3,40 to 200 nM,"O=C(Nc1cnc(N2CCN(CC(F)F)CC2)c(Cl)c1)Nc1c[nH]c2ccc(Cl)cc12 [Compound 261, 1-(5-chloro-1H-indol-3-yl)-3-(5-chloro-6-(4-(2,2-difluoroethyl)piperazin-1-yl)pyridin-3-yl)urea]"
4,40 to 200 nM,"O=C(Nc1cc(Cl)c(C2CCC(F)(F)CC2)cn1)Nc1c[nH]c2cc(F)c(F)cc12 [Compound 154, 1-(4-chloro-5-(4,4-difluorocyclohexyl)pyridin-2-yl)-3-(5,6-difluoro-1H-indol-3-yl)urea]"
5,40 to 200 nM,"O=C(Nc1cnc(Cl)c(C2CCC(F)(F)CC2)c1)Nc1c[nH]c2ccc(Cl)cc12 [Compound 231, 1-(5-chloro-1H-indol-3-yl)-3-(6-chloro-5-(4,4-difluorocyclohexyl)pyridin-3-yl)urea]"
6,40 to 200 nM,"O=C(Nc1cnc(N2CCC(F)(F)CC2)c(Cl)n1)Nc1c[nH]c2ccc(Cl)cc12 [Compound 174, 1-(5-chloro-1H-indol-3-yl)-3-(6-chloro-5-(4,4-difluoropiperidin-1-yl)pyrazin-2-yl)urea]"
7,40 to 200 nM,"C[C@@H]1CN(c2ncc(NC(=O)Nc3c[nH]c4cc(F)c(F)cc34)cc2Cl)C[C@@H](C)O1 [Compound 142, 1-(5-chloro-6-((2R,6R)-2,6-dimethylmorpholino)pyridin-3-yl)-3-(5,6-difluoro-1H-indol-3-yl)urea]"
8,40 to 200 nM,"O=C(Nc1cc(Cl)nc(C2CCC(F)(F)CC2)c1)Nc1c[nH]c2ccc(Cl)cc12 [Compound 221, 1-(5-chloro-1H-indol-3-yl)-3-(2-chloro-6-(4,4-difluorocyclohexyl)pyridin-4-yl)urea]"
9,40 to 200 nM,"O=C(Nc1cnc(N2CCC(F)(F)CC2)c(F)c1)Nc1c[nH]c2ccc(F)cc12 [Compound 274, 1-(6-(4,4-difluoropiperidin-1-yl)-5-fluoropyridin-3-yl)-3-(5-fluoro-1H-indol-3-yl)urea]"
10,40 to 200 nM,"N#Cc1ccc2[nH]cc(NC(=O)Nc3cnc(N4CCC(F)(F)CC4)c(Cl)c3)c2c1 [Compound 181, 1-(5-chloro-6-(4,4-difluoropiperidin-1-yl)pyridin-3-yl)-3-(5-cyano-1H-indol-3-yl)urea]"
11,40 to 200 nM,"Cc1cc(NC(=O)Nc2c[nH]c3ccc(Cl)cc23)cnc1N1CC2(C1)CC(F)(F)C2 [Compound 129, 1-(5-chloro-1H-indol-3-yl)-3-(6-(6,6-difluoro-2-azaspiro[3.3]heptan-2-yl)-5-methylpyridin-3-yl)urea]"
